Experimental data from patent publication US20250147039A1, “Compounds for complexation of rare earth elements and/or s-, p-, d- block metals, their coordination compounds, peptide conjugates, method of their preparation and use thereof” (USTAV ORGANICKE CHEMIE A BIOCHEMIE AV CR V.V.I., priority 2021, published 2025).

Tests used:
[1] = Formation of 1,5-cz-[Ln(Lig)] from Lig and Ln^III ions (metal dependent click-zip), MOPS/NaOH buffer pH 7.0, analytical HPLC (Charts 1, 2); conditions: MOPS/NaOH buffer pH 7.0
[2] = Formation of 1,5-cz-[M(Lig)] from Lig and M^III ions (metal dependent click-zip) (Charts 4, 5); format: physicochemical; conditions: MOPS/NaOH buffer pH 7.0, TD728, TD827 in 50% i-PrOH; for conversion to 1,5-cz-[M(Lig)], Y^III: TD714 sum of two diastereoisomers

Compound	conversion to 1,5-cz-[Ln(Lig)], Ce^III ([1]; after 1 week at 80° C.)	conversion to 1,5-cz-[Ln(Lig)], Ce^III ([1]; after 1 hour at 80° C.)	conversion to 1,5-cz-[Ln(Lig)], Dy^III ([1]; after 1 week at 80° C.)	conversion to 1,5-cz-[Ln(Lig)], Dy^III ([1]; after 1 hour at 80° C.)	conversion to 1,5-cz-[Ln(Lig)], Er^III ([1]; after 1 week at 80° C.)	conversion to 1,5-cz-[Ln(Lig)], Er^III ([1]; after 1 hour at 80° C.)	conversion to 1,5-cz-[Ln(Lig)], Eu^III ([1]; after 1 week at 80° C.)	conversion to 1,5-cz-[Ln(Lig)], Eu^III ([1]; after 1 hour at 80° C.)	conversion to 1,5-cz-[Ln(Lig)], Gd^III ([1]; after 1 week at 80° C.)	conversion to 1,5-cz-[Ln(Lig)], Gd^III ([1]; after 1 hour at 80° C.)	conversion to 1,5-cz-[Ln(Lig)], Ho^III ([1]; after 1 week at 80° C.)	conversion to 1,5-cz-[Ln(Lig)], Ho^III ([1]; after 1 hour at 80° C.)	conversion to 1,5-cz-[Ln(Lig)], La^III ([1]; after 1 week at 80° C.)	conversion to 1,5-cz-[Ln(Lig)], La^III ([1]; after 1 hour at 80° C.)	conversion to 1,5-cz-[Ln(Lig)], Lu^III ([1]; after 1 week at 80° C.)	conversion to 1,5-cz-[Ln(Lig)], Lu^III ([1]; after 1 hour at 80° C.)	conversion to 1,5-cz-[Ln(Lig)], Nd^III ([1]; after 1 week at 80° C.)	conversion to 1,5-cz-[Ln(Lig)], Nd^III ([1]; after 1 hour at 80° C.)	conversion to 1,5-cz-[Ln(Lig)], Pr^III ([1]; after 1 week at 80° C.)	conversion to 1,5-cz-[Ln(Lig)], Pr^III ([1]; after 1 hour at 80° C.)	also measured
C#Cc1cccc(CN2CCN(CC(=O)NCC(=O)O)CCN(Cc3cc(-c4ccccc4)cc(CN=[N+]=[N-])n3)CCN(CC(=O)NCC(=O)O)CC2)n1 [TD778]	0%	20%	18%	13%	32%	25%	3%	4%	11%	4%	30%	17%	0%	24%	34%	26%	0%	9%	0%	13%	conversion to 1,5-cz-[Ln(Lig)], Sm^III ([1]; after 1 week at 80° C.): 1%; conversion to 1,5-cz-[Ln(Lig)], Sm^III ([1]; after 1 hour at 80° C.): 4%; conversion to 1,5-cz-[Ln(Lig)], Tb^III ([1]; after 1 week at 80° C.): 15%; conversion to 1,5-cz-[Ln(Lig)], Tb^III ([1]; after 1 hour at 80° C.): 9%; conversion to 1,5-cz-[Ln(Lig)], Tm^III ([1]; after 1 week at 80° C.): 31%; conversion to 1,5-cz-[Ln(Lig)], Tm^III ([1]; after 1 hour at 80° C.): 31%; conversion to 1,5-cz-[Ln(Lig)], Yb^III ([1]; after 1 week at 80° C.): 27%; conversion to 1,5-cz-[Ln(Lig)], Yb^III ([1]; after 1 hour at 80° C.): 30%; conversion to 1,5-cz-[M(Lig)], Sc^III ([2]; 1 week at 80° C.): 0%; conversion to 1,5-cz-[M(Lig)], Y^III ([2]; 1 week at 80° C.): 27%; conversion to 1,5-cz-[M(Lig)], Sc^III ([2]; 1 hour at 80° C.): 0%; conversion to 1,5-cz-[M(Lig)], Y^III ([2]; 1 hour at 80° C.): 17%
[N-]=[N+]=NCc1cc(-c2ccccc2)cc(CN2CCN(CC(=O)O)CCN(Cc3cccc(C#CCN)n3)CCN(CC(=O)O)CC2)n1 [TD722]	1%	0%	65%	5%	91%	17%	14%	1%	19%	2%	82%	9%	2%	0%	96%	49%	4%	0%	3%	0%	conversion to 1,5-cz-[Ln(Lig)], Sm^III ([1]; after 1 week at 80° C.): 9%; conversion to 1,5-cz-[Ln(Lig)], Sm^III ([1]; after 1 hour at 80° C.): 1%; conversion to 1,5-cz-[Ln(Lig)], Tb^III ([1]; after 1 week at 80° C.): 54%; conversion to 1,5-cz-[Ln(Lig)], Tb^III ([1]; after 1 hour at 80° C.): 3%; conversion to 1,5-cz-[Ln(Lig)], Tm^III ([1]; after 1 week at 80° C.): 96%; conversion to 1,5-cz-[Ln(Lig)], Tm^III ([1]; after 1 hour at 80° C.): 27%; conversion to 1,5-cz-[Ln(Lig)], Yb^III ([1]; after 1 week at 80° C.): 96%; conversion to 1,5-cz-[Ln(Lig)], Yb^III ([1]; after 1 hour at 80° C.): 38%; conversion to 1,5-cz-[M(Lig)], Sc^III ([2]; 1 week at 80° C.): 14%; conversion to 1,5-cz-[M(Lig)], Y^III ([2]; 1 week at 80° C.): 71%; conversion to 1,5-cz-[M(Lig)], Sc^III ([2]; 1 hour at 80° C.): 3%; conversion to 1,5-cz-[M(Lig)], Y^III ([2]; 1 hour at 80° C.): 9%
